The values that follow come from ChEMBL document CHEMBL5154907, “Discovery and Anti-Inflammatory Activity Evaluation of a Novel CDK8 Inhibitor through Upregulation of IL-10 for the Treatment of Inflammatory Bowel Disease In Vivo” (J Med Chem, 2022).

The test system of one assay is BMDC. The assay can be described thus: Anti-inflammatory activity against R848-stimulated mouse BMDC cells assessed as upregulation of IL-10 production at 5 uM treated for 24 hrs followed by R848 stimulation for 12 hrs by ELISA method (reference value: 100 %). Type of assay: functional. As to conditions: time 36 hrs.
The target in assay [1] is CDK8/Cyclin C (Homo sapiens) (UniProt P49336+P24863). Nature of the assay: Inhibition of recombinant full length His tagged human CDK8/Cyclin C expressed in Baculovirus at 200 nM incubated for 60 mins in presence of ATP by ADP-Glo kinase assay. (In ADP-Glo the light output rises with the ADP produced.)

A word on the inhibition: it is the percentage by which the read-out fell short of the control. `O=C(NC1CCCCC1)c1cncc(-c2ccc(C(=O)N3CCNCC3)cc2)c1`: in the assay on BMDC, the Activity turned out to be 59%. In assay [1], the inhibition was found to be 53%.
In the same order, the values of `CCN1CCN(c2ccc(-c3cc(O)c4c(=O)cc(-c5ccccc5)oc4c3)cc2)CC1` are 40% and 29%.
With `O=c1cc(-c2ccccc2)oc2cc(-c3ccc(Cl)cc3)cc(O)c12`, the inhibition in assay [1] stood at 31%.
For the compound `O=c1cc(-c2ccccc2)oc2cc(-c3ccc(N4CCOCC4)cc3)cc(O)c12`, the Activity with BMDC came out at 23%. For the same compound, in assay [1], the inhibition came out at 19%.
In the same order, the values of `O=C(Nc1ccc(C(F)(F)F)cc1)c1cncc(-c2ccc(C(=O)N3CCNCC3)cc2)c1` are 19% and 23%.
`O=C(Nc1cccc(Cl)c1)c1cncc(-c2ccc(C(=O)N3CCNCC3)cc2)c1`: the Activity with BMDC is listed as 39%. For the same compound, the inhibition in assay [1] is 47%.
For the compound `O=C(Nc1ccc(C(F)(F)F)cc1)c1cc(O)cc(-c2ccc(C(=O)N3CCNCC3)cc2)c1`, in the assay with BMDC, the Activity was found to be 8%. For the same compound, in assay [1], the inhibition is 40%.
Consider `O=C(c1ccc(-c2cc(O)c3c(=O)cc(-c4ccccc4)oc3c2)cc1)N1CCOCC1`, for which the Activity in the assay with BMDC is 25%. Also, in assay [1], the inhibition was 6%.
For the compound `CC(=O)Nc1ccc(-c2cc(O)c3c(=O)cc(-c4ccccc4)oc3c2)cc1`, the Activity in the assay on BMDC is 49%. Also, the inhibition in assay [1] amounted to 54%.
The corresponding values for `COc1ccc(NC(=O)c2cc(O)cc(-c3ccc(C(=O)N4CCNCC4)cc3)c2)cc1` are 56% and 61%.
In the same order, the values of `CC(C)c1ccccc1NC(=O)c1cc(O)cc(-c2ccc(C(=O)N3CCNCC3)cc2)c1` are 23% and 53%.
Turning to `O=C(Nc1cccc(F)c1)c1cc(O)cc(-c2ccc(C(=O)N3CCNCC3)cc2)c1`, the Activity in the assay on BMDC was determined as 26%. The inhibition in assay [1] was 20%.
The corresponding values for `CC(C)(C)c1ccc(NC(=O)c2cc(O)cc(-c3ccc(C(=O)N4CCNCC4)cc3)c2)cc1` are 72% and 35%.
Turning to `O=c1cc(-c2ccccc2)oc2cc(-c3ccsc3)cc(O)c12`, the inhibition in assay [1] amounted to 6%.
For the compound `Cn1cc(-c2cc(O)c3c(=O)cc(-c4ccccc4)oc3c2)cn1`, in the assay with BMDC, the Activity was 57%. In addition, the inhibition in assay [1] is 11%.
In the same order, the values of `CN(C)C(=O)c1ccc(-c2cc(O)c3c(=O)cc(-c4ccccc4)oc3c2)cc1` are 76% and 43%.
As for `O=c1cc(-c2ccccc2)oc2cc(-c3ccoc3)cc(O)c12`, the Activity with BMDC was determined as 48%. In addition, in assay [1], the inhibition turned out to be 29%.
The corresponding values for `O=C(Nc1cccc(F)c1)c1cncc(-c2ccc(C(=O)N3CCNCC3)cc2)c1` are 53% and 42%.
Turning to `COc1ccc(-c2cc(O)c3c(=O)cc(-c4ccccc4)oc3c2)cc1`, in the assay on BMDC, the Activity is on record as 76%. Besides, the inhibition in assay [1] was determined as 47%.
For the compound `O=C(Nc1ccc(F)cc1)c1cc(O)cc(-c2ccc(C(=O)N3CCNCC3)cc2)c1`, the Activity in the assay on BMDC is on record as 42%. In addition, the inhibition in assay [1] was 12%.
For `CC(=O)Nc1cccc(NC(=O)c2cc(O)cc(-c3ccc(C(=O)N4CCNCC4)cc3)c2)c1`, the Activity with BMDC is on record as 12%.
In the case of `O=c1cc(-c2ccccc2)oc2cc(-c3ccc(OC(F)(F)F)cc3)cc(O)c12`, the Activity in the assay on BMDC amounted to 44%. In assay [1], the inhibition was 48%.
As to `CC(C)c1cccc(NC(=O)c2cncc(-c3ccc(C(=O)N4CCNCC4)cc3)c2)c1`, the inhibition in assay [1] was 64%.
Turning to `CCN1CCN(C(=O)c2ccc(-c3cc(O)c4c(=O)cc(-c5ccccc5)oc4c3)cc2)CC1`, in the assay on BMDC, the Activity was 23%. Further, the inhibition in assay [1] worked out at 57%.
As to `COc1ccccc1NC(=O)c1cncc(-c2ccc(C(=O)N3CCNCC3)cc2)c1`, the Activity with BMDC was found to be 62%. Besides, the inhibition in assay [1] is 60%.
With `CCc1ccc(-c2cc(O)c3c(=O)cc(-c4ccccc4)oc3c2)cc1`, the inhibition in assay [1] was 31%.
For `CC(C)c1ccccc1NC(=O)c1cncc(-c2ccc(C(=O)N3CCNCC3)cc2)c1`, the Activity in the assay with BMDC stood at 78%. For the same compound, in assay [1], the inhibition came to 58%.
In the same order, the values of `Cc1ccc(NC(=O)c2cc(O)cc(-c3ccc(C(=O)N4CCNCC4)cc3)c2)cc1` are 34% and 21%.
In the same order, the values of `O=C(Nc1ccc(OC(F)(F)F)cc1)c1cncc(-c2ccc(C(=O)N3CCNCC3)cc2)c1` are 62% and 55%.
The corresponding values for `CCCN1CCN(C(=O)c2ccc(-c3cc(O)c4c(=O)cc(-c5ccccc5)oc4c3)cc2)CC1` are 53% and 29%.
Regarding `O=C(Nc1cccc(C(F)(F)F)c1)c1cc(O)cc(-c2ccc(C(=O)N3CCNCC3)cc2)c1`, in the assay on BMDC, the Activity is recorded as 19%. In addition, the inhibition in assay [1] amounted to 15%.
The corresponding values for `O=C(Nc1ccccc1F)c1cncc(-c2ccc(C(=O)N3CCNCC3)cc2)c1` are 62% and 55%.
Regarding `CC(C)c1ccc(NC(=O)c2cc(O)cc(-c3ccc(C(=O)N4CCNCC4)cc3)c2)cc1`, the Activity in the assay with BMDC stood at 53%. For the same compound, the inhibition in assay [1] amounted to 28%.
In the same order, the values of `O=C(NCc1ccoc1)c1cncc(-c2ccc(C(=O)N3CCNCC3)cc2)c1` are 60% and 61%.
Regarding `COc1cc(-c2cc(O)c3c(=O)cc(-c4ccccc4)oc3c2)cc(OC)c1OC`, the Activity in the assay on BMDC was 78%. For the same compound, the inhibition in assay [1] worked out at 27%.
In the case of `O=C(Nc1cccc(OC(F)(F)F)c1)c1cc(O)cc(-c2ccc(C(=O)N3CCNCC3)cc2)c1`, the Activity with BMDC is recorded as 10%.
With `Nc1cccc(NC(=O)c2cc(O)cc(-c3ccc(C(=O)N4CCNCC4)cc3)c2)c1`, in the assay with BMDC, the Activity is listed as 53%. For the same compound, the inhibition in assay [1] stood at 39%.
In the same order, the values of `O=C(Nc1ccc(F)cc1)c1cncc(-c2ccc(C(=O)N3CCNCC3)cc2)c1` are 75% and 60%.
The corresponding values for `O=c1cc(-c2ccccc2)oc2cc(-c3ccc(CN4CCOCC4)cc3)cc(O)c12` are 53% and 43%.
In the case of `CC(C)c1ccc(NC(=O)c2cncc(-c3ccc(C(=O)N4CCNCC4)cc3)c2)cc1`, the Activity in the assay with BMDC was determined as 61%. In addition, the inhibition in assay [1] is 62%.
The corresponding values for `COc1cccc(NC(=O)c2cc(O)cc(-c3ccc(C(=O)N4CCNCC4)cc3)c2)c1` are 17% and 36%.
The corresponding values for `CC(C)c1cccc(NC(=O)c2cc(O)cc(-c3ccc(C(=O)N4CCNCC4)cc3)c2)c1` are 62% and 29%.
In the same order, the values of `O=C(c1ccc(-c2cc(O)c3c(=O)cc(-c4ccccc4)oc3c2)cc1)N1CCSCC1` are 46% and 19%.
For the compound `CCc1ccc(NC(=O)c2cc(O)cc(-c3ccc(C(=O)N4CCNCC4)cc3)c2)cc1`, the Activity in the assay on BMDC is recorded as 72%. Besides, the inhibition in assay [1] is 48%.
Consider `CN(C)Cc1ccc(-c2cc(O)c3c(=O)cc(-c4ccccc4)oc3c2)cc1`, for which, in the assay on BMDC, the Activity is listed as 82%. Also, the inhibition in assay [1] stood at 47%.
For `CC(=O)Nc1ccc(NC(=O)c2cc(O)cc(-c3ccc(C(=O)N4CCNCC4)cc3)c2)cc1`, the Activity in the assay on BMDC is listed as 30%. In assay [1], the inhibition is 45%.
Take `CN1CCN(C(=O)c2ccc(-c3cc(O)c4c(=O)cc(-c5ccccc5)oc4c3)cc2)CC1`: the Activity in the assay with BMDC was 19%.
